# Data from patent publication US4594347A, “Pyrrolo [3,2,1-ij]-quinoline carboxylic acid compound” (Otsuka Pharmaceutical Co. Limited, priority 1983, dated 1986).
# What was measured:
# Test in all cases: Antimicrobial test in vitro (MIC, agar plate dilution method)
# Format in all cases: cell-based
# Design in all cases: unit not given here
# [1] = tested on: Staphylococcus aureus FDA 209P; conditions: S. aureus FDA 209P
# Protocol: (§1) The antimicrobial activities of the following test compounds were tested by measuring the minimum inhibitory concentration (MIC) by an agar plate dilution method [cf. Chemotherapy, 22, 1126-1128 (1974)]. The test microorganisms were used in a concentration of 1×10^8 cells/ml (optical dencity (O.D.) at 660 m: 0.07-0.16) and 1×10^6 cells/ml (dilution: 100 folds).
# A: Staphylococcus aureus FDA 209P
# [2] = tested on: Acinetobacter calcoaceticus AC-54; conditions: A. calcoaceticus AC-54
# Protocol: as §1
# I: Acinetobacter calcoaceticus AC-54
# [3] = tested on: Pseudomonas aeruginosa E-2; conditions: P. aeruginosa E-2
# Protocol: as §1
# K: Pseudomonas aeruginosa E-2
# [4] = tested on: Serratia marcescens IFO 12648; conditions: S. marcescens IFO 12648
# Protocol: as §1
# H: Serratia marcescens IFO 12648
# [5] = tested on: Escherichia coli NIHJ JC-2; conditions: E. coli NIHJ JC-2
# Protocol: as §1
# C: Escherichia coli NIHJ JC-2
# [6] = tested on: Proteus morganii II D Kono; conditions: P. morganii II D Kono
# Protocol: as §1
# G: Proteus morganii II D Kono
# [7] = tested on: Pseudomonas aeruginosa ATCC 10145; conditions: P. aeruginosa ATCC 10145
# Protocol: as §1
# J: Pseudomonas aeruginosa ATCC 10145
# Escherichia coli No. 29 = conditions: E. coli No. 29
# Protocol: as §1
# D: Escherichia coli No. 29
# [8] = tested on: Klebsiella pneumoniae NCTC 9632; conditions: K. pneumoniae NCTC 9632
# Protocol: as §1
# E: Klebsiella pneumoniae NCTC 9632
# [9] = tested on: Streptococcus pyogenes II D S-23; conditions: S. pyogenes II D S-23
# Protocol: as §1
# B: Streptococcus pyogenes II D S-23
# Proteus mirabilis 1287 = conditions: P. mirabilis 1287
# Protocol: as §1
# F: Proteus mirabilis 1287
Structure (SMILES),minimum inhibitory concentration (MIC) ([1]; 1×10^6 cells/ml),minimum inhibitory concentration (MIC) ([1]; 1×10^8 cells/ml),minimum inhibitory concentration (MIC) ([2]; 1×10^6 cells/ml),minimum inhibitory concentration (MIC) ([2]; 1×10^8 cells/ml),minimum inhibitory concentration (MIC) ([3]; 1×10^6 cells/ml),minimum inhibitory concentration (MIC) ([3]; 1×10^8 cells/ml),minimum inhibitory concentration (MIC) ([4]; 1×10^6 cells/ml),minimum inhibitory concentration (MIC) ([4]; 1×10^8 cells/ml),minimum inhibitory concentration (MIC) ([5]; 1×10^6 cells/ml),minimum inhibitory concentration (MIC) ([5]; 1×10^8 cells/ml),minimum inhibitory concentration (MIC) ([6]; 1×10^6 cells/ml),minimum inhibitory concentration (MIC) ([6]; 1×10^8 cells/ml),minimum inhibitory concentration (MIC) ([7]; 1×10^6 cells/ml),minimum inhibitory concentration (MIC) ([7]; 1×10^8 cells/ml),minimum inhibitory concentration (MIC) (Escherichia coli No. 29; 1×10^6 cells/ml),minimum inhibitory concentration (MIC) (Escherichia coli No. 29; 1×10^8 cells/ml),minimum inhibitory concentration (MIC) ([8]; 1×10^6 cells/ml),minimum inhibitory concentration (MIC) ([8]; 1×10^8 cells/ml),minimum inhibitory concentration (MIC) ([9]; 1×10^6 cells/ml),minimum inhibitory concentration (MIC) ([9]; 1×10^8 cells/ml),also measured
"CC1Cc2c(N3CCOCC3)c(F)c(N)c3c(=O)c(C(=O)O)cn1c23 (centres unmarked) [Compound 3, 7-amino-8-fluoro-9-(4-morpholino)-2-methyl-6-oxo-1,2-dihydro-pyrrolo[3,2,1-ij]quinoline-5-carboxylic acid]",0.2,0.39,0.78,1.56,6.25,6.25,0.78,0.78,0.2,0.2,0.39,0.39,3.13,6.25,0.2,0.39,0.39,0.39,12.5,12.5,minimum inhibitory concentration (MIC) (Proteus mirabilis 1287; 1×10^6 cells/ml): 0.78; minimum inhibitory concentration (MIC) (Proteus mirabilis 1287; 1×10^8 cells/ml): 1.56
"CC1Cc2c(N3CCCC3)c(F)c(N)c3c(=O)c(C(=O)O)cn1c23 (centres unmarked) [Compound 6, 7-amino-8-fluoro-2-methyl-6-oxo-9-(1-pyrrolidinyl)-1,2-dihydro-pyrrolo[3,2,1-ij]quinoline-5-carboxylic acid]",0.39,0.78,6.25,6.25,1.56,12.5,6.25,6.25,0.78,1.56,6.25,6.25,6.25,12.5,1.56,1.56,1.56,6.25,6.25,12.5,minimum inhibitory concentration (MIC) (Proteus mirabilis 1287; 1×10^6 cells/ml): 6.25; minimum inhibitory concentration (MIC) (Proteus mirabilis 1287; 1×10^8 cells/ml): 6.25
"CC1Cc2c(N3CCNCC3)c(F)c(N)c3c(=O)c(C(=O)O)cn1c23 (centres unmarked) [Compound 2, 8-fluoro-2-methyl-9-(1-piperazinyl)-7-amino-6-oxo-1,2-dihydro-pyrrolo[3,2,1-ij]quinoline-5-carboxylic acid]",0.39,0.78,0.78,3.13,0.39,0.39,0.2,0.2,0.1,0.1,0.2,0.39,0.39,0.39,0.1,0.1,0.1,0.2,3.13,6.25,minimum inhibitory concentration (MIC) (Proteus mirabilis 1287; 1×10^6 cells/ml): 0.2; minimum inhibitory concentration (MIC) (Proteus mirabilis 1287; 1×10^8 cells/ml): 0.2
"CC1Cc2c(N3CCCCC3)c(F)c(N)c3c(=O)c(C(=O)O)cn1c23 (centres unmarked) [Compound 4, 7-amino-8-fluoro-2-methyl-6-oxo-9-(1-piperidyl)-1,2-dihydro-pyrrolo[3,2,1-ij]quinoline-5-carboxylic acid]",0.39,0.39,6.25,6.25,25,25,6.25,6.25,0.78,0.78,1.56,1.56,12.5,25,1.56,1.56,1.56,3.13,25,25,minimum inhibitory concentration (MIC) (Proteus mirabilis 1287; 1×10^6 cells/ml): 6.25; minimum inhibitory concentration (MIC) (Proteus mirabilis 1287; 1×10^8 cells/ml): 6.25
"CC1Cc2c(N3CCC(O)CC3)c(F)c(N)c3c(=O)c(C(=O)O)cn1c23 (centres unmarked) [Compound 5, 7-amino-8-fluoro-9-(4-hydroxy-1-piperidyl)-2-methyl-6-oxo-1,2-dihydro-pyrrolo[3,2,1-ij]quinoline-5-carboxylic acid]",0.2,0.39,3.13,6.25,6.25,12.5,1.56,3.13,0.39,0.78,1.56,1.56,6.25,6.25,0.78,0.78,0.78,0.78,6.25,12.5,minimum inhibitory concentration (MIC) (Proteus mirabilis 1287; 1×10^6 cells/ml): 1.56; minimum inhibitory concentration (MIC) (Proteus mirabilis 1287; 1×10^8 cells/ml): 1.56
